{"source": "PubChem BioAssay AID1963836", "about": "(Molecular Pharmacology Branch, DTP, NCI, 2024);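 further: spheroids exposed to compounds for seven days before readout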", "tested_on": "857933-349-R-J2-PDC complex spheroid viability", "assay": "Anticancer human tumor 857933-349-R-J2-PDC patient-derived colon adenocarcinoma cell line growth inhibition [POLQ]", "conditions": "for IC50: curve of first compound; for viability, T/C: stronger effect = lower value", "outline": "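Complex spheroid viability model combining PDC tumour cells with endothelial (HUVEC) and MSC stromal cells. Novobiocin, ART-558 or RP6685 were tested singly and in combination with standard and investigational anticancer drugs. Each was titrated in half-log steps from near clinical Cmax, or from 10 microM where Cmax was unknown.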", "data": [{"smiles": "CC(=O)O[C@H]1C(=O)[C@@]2(C)[C@H]([C@H](OC(=O)c3ccccc3)[C@]3(O)C[C@H](OC(=O)[C@H](O)[C@@H](NC(=O)c4ccccc4)c4ccccc4)C(C)=C1C3(C)C)[C@]1(OC(C)=O)CO[C@@H]1C[C@@H]2O", "note": "+ Cc1cccc(N(C)C(=O)C2C(O)CCN2c2nc(C)cc(C(F)(F)F)c2C#N)c1", "values": [{"measurement": "IC50", "setting": "second compound 0.0316 µM", "result": "< 9.49", "unit": "nM"}, {"measurement": "IC50", "setting": "second compound 0.1 µM", "result": "< 9.49", "unit": "nM"}, {"measurement": "IC50", "setting": "second compound 0.316 µM", "result": "< 9.49", "unit": "nM"}, {"measurement": "IC50", "setting": "second compound 1 µM", "result": "< 9.49", "unit": "nM"}, {"measurement": "IC50", "setting": "second compound 3.16 µM", "result": 10.7, "unit": "nM"}, {"measurement": "IC50", "setting": "second compound 10 µM", "result": "< 9.49", "unit": "nM"}, {"measurement": "viability, T/C", "setting": "second compound 0.0316 µM, first compound 0.00949 µM", "result": 45.4, "unit": "%"}, {"measurement": "viability, T/C", "setting": "second compound 0.0316 µM, first compound 0.03 µM", "result": 21.2, "unit": "%"}, {"measurement": "viability, T/C", "setting": "second compound 0.0316 µM, first compound 0.0949 µM", "result": 10.7, "unit": "%"}, {"measurement": "viability, T/C", "setting": "second compound 0.0316 µM, first compound 0.3 µM", "result": 11.8, "unit": "%"}, {"measurement": "viability, T/C", "setting": "second compound 0.0316 µM, first compound 0.949 µM", "result": 9.59, "unit": "%"}, {"measurement": "viability, T/C", "setting": "second compound 0.0316 µM, first compound 3 µM", "result": 14.6, "unit": "%"}, {"measurement": "viability, T/C", "setting": "second compound 0.1 µM, first compound 0.00949 µM", "result": 40.1, "unit": "%"}, {"measurement": "viability, T/C", "setting": "second compound 0.1 µM, first compound 0.03 µM", "result": 16.9, "unit": "%"}, {"measurement": "viability, T/C", "setting": "second compound 0.1 µM, first compound 0.0949 µM", "result": 12.6, "unit": "%"}, {"measurement": "viability, T/C", "setting": "second compound 0.1 µM, first compound 0.3 µM", "result": 10.6, "unit": "%"}, {"measurement": "viability, T/C", "setting": "second compound 0.1 µM, first compound 0.949 µM", "result": 14.4, "unit": "%"}, {"measurement": "viability, T/C", "setting": "second compound 0.1 µM, first compound 3 µM", "result": 13.8, "unit": "%"}, {"measurement": "viability, T/C", "setting": "second compound 0.316 µM, first compound 0.00949 µM", "result": 40, "unit": "%"}, {"measurement": "viability, T/C", "setting": "second compound 0.316 µM, first compound 0.03 µM", "result": 19.5, "unit": "%"}, {"measurement": "viability, T/C", "setting": "second compound 0.316 µM, first compound 0.0949 µM", "result": 10.1, "unit": "%"}, {"measurement": "viability, T/C", "setting": "second compound 0.316 µM, first compound 0.3 µM", "result": 12, "unit": "%"}, {"measurement": "viability, T/C", "setting": "second compound 0.316 µM, first compound 0.949 µM", "result": 12.3, "unit": "%"}, {"measurement": "viability, T/C", "setting": "second compound 0.316 µM, first compound 3 µM", "result": 12.4, "unit": "%"}, {"measurement": "viability, T/C", "setting": "second compound 1 µM, first compound 0.00949 µM", "result": 47.7, "unit": "%"}, {"measurement": "viability, T/C", "setting": "second compound 1 µM, first compound 0.03 µM", "result": 20, "unit": "%"}, {"measurement": "viability, T/C", "setting": "second compound 1 µM, first compound 0.0949 µM", "result": 12.6, "unit": "%"}, {"measurement": "viability, T/C", "setting": "second compound 1 µM, first compound 0.3 µM", "result": 10.4, "unit": "%"}, {"measurement": "viability, T/C", "setting": "second compound 1 µM, first compound 0.949 µM", "result": 10.9, "unit": "%"}, {"measurement": "viability, T/C", "setting": "second compound 1 µM, first compound 3 µM", "result": 13.4, "unit": "%"}, {"measurement": "viability, T/C", "setting": "second compound 3.16 µM, first compound 0.00949 µM", "result": 54, "unit": "%"}, {"measurement": "viability, T/C", "setting": "second compound 3.16 µM, first compound 0.03 µM", "result": 15.1, "unit": "%"}, {"measurement": "viability, T/C", "setting": "second compound 3.16 µM, first compound 0.0949 µM", "result": 10.4, "unit": "%"}, {"measurement": "viability, T/C", "setting": "second compound 3.16 µM, first compound 0.3 µM", "result": 12.1, "unit": "%"}, {"measurement": "viability, T/C", "setting": "second compound 3.16 µM, first compound 0.949 µM", "result": 12.1, "unit": "%"}, {"measurement": "viability, T/C", "setting": "second compound 3.16 µM, first compound 3 µM", "result": 13.5, "unit": "%"}, {"measurement": "viability, T/C", "setting": "second compound 10 µM, first compound 0.00949 µM", "result": 35.4, "unit": "%"}, {"measurement": "viability, T/C", "setting": "second compound 10 µM, first compound 0.03 µM", "result": 14.5, "unit": "%"}, {"measurement": "viability, T/C", "setting": "second compound 10 µM, first compound 0.0949 µM", "result": 13.6, "unit": "%"}, {"measurement": "viability, T/C", "setting": "second compound 10 µM, first compound 0.3 µM", "result": 11.8, "unit": "%"}, {"measurement": "viability, T/C", "setting": "second compound 10 µM, first compound 0.949 µM", "result": 13.3, "unit": "%"}, {"measurement": "viability, T/C", "setting": "second compound 10 µM, first compound 3 µM", "result": 15.4, "unit": "%"}]}]}
